Values joined by “and” are separate entries in the source; they are usually repeats but may differ in a detail not shown here. Equal entries are not always repeated.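 Briefly, cells in 96-well plates were exposed to five compound concentrations for 48 h, and endpoints were estimated by linear interpolation. Here, GI50 denotes the concentration required for 50% inhibition of growth. At the TGI there is no net growth.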

Among the test systems are 786-0 renal; HCT-116 colon; HOP-92 NSCLC; LOX IMVI melanoma; M14 melanoma; OVCAR-5 ovarian; OVCAR-8 ovarian; SF-268 CNS; SNB-19 CNS; U251 CNS.
What all share (assay): NCI-60 cell line screen, 48 h

In the case of `Cc1cc(Cl)n2c(nc3ccccc32)c1C#N`, the GI50 in the assay with 786-0 renal was 0.768 µM; in the assay on HCT-116 colon, 0.0393 µM; with HOP-92 NSCLC it was 0.494 µM; in the assay with LOX IMVI melanoma, 0.26 µM; in the assay on M14 melanoma it was 0.395 µM; with OVCAR-5 ovarian, 0.83 µM. For the same compound, the GI50 in the assay on OVCAR-8 ovarian was 0.597 µM; in the assay with SF-268 CNS, 0.46 µM; in the assay on SNB-19 CNS it was 2.44 µM; in the assay with U251 CNS, 0.482 µM. The TGI was determined as 6.48 µM in the assay with 786-0 renal; 1.4 µM in the assay on HCT-116 colon; 1.62 µM in the assay on HOP-92 NSCLC; 1.35 µM in the assay on LOX IMVI melanoma; 2.04 µM in the assay with M14 melanoma; 10.8 µM in the assay with OVCAR-5 ovarian. The TGI in the assay with OVCAR-8 ovarian was 11.9 µM; with SF-268 CNS, 11.4 µM; in the assay on SNB-19 CNS it was 15.6 µM; in the assay on U251 CNS, 3.17 µM.
Regarding `O=C(Nc1ccc(Cl)cc1)NS(=O)(=O)c1ccc2c(c1)CCC2`, the GI50 is 21.1 µg/mL with 786-0 renal; 8.93 µg/mL in the assay with HCT-116 colon; 8.6 µg/mL in the assay on HOP-92 NSCLC; 20.2 µg/mL with M14 melanoma; 20 µg/mL in the assay with OVCAR-5 ovarian; 18.8 µg/mL in the assay on OVCAR-8 ovarian. Further, the GI50 is 15.7 µg/mL in the assay with SF-268 CNS, 18.6 µg/mL in the assay on SNB-19 CNS and 22.5 µg/mL in the assay on U251 CNS. Besides, the TGI in the assay with 786-0 renal is > 100 µM and 40.5 µg/mL; in the assay on HCT-116 colon it was > 67.3 µM and 27.9 µg/mL; in the assay with HOP-92 NSCLC it was 31.5 µg/mL; with LOX IMVI melanoma, more than 79.9 µM; in the assay on M14 melanoma, 97.5 µM and 45.1 µg/mL; with OVCAR-5 ovarian it was > 91 µM and 39.3 µg/mL. Besides, the TGI in the assay on OVCAR-8 ovarian is > 100 µM and 44.2 µg/mL; in the assay on SF-268 CNS it was > 100 µM and 35.7 µg/mL; with SNB-19 CNS it was > 100 µM and 53.5 µg/mL; with U251 CNS, > 77.5 µM and 48.3 µg/mL.
`COc1ccc(C(=O)c2cc3c(N)c(C(=O)Nc4cccc(Cl)c4)sc3nc2C)cc1`: the GI50 in the assay on 786-0 renal is 2.67 µM; in the assay with HCT-116 colon, 1.45 µM; in the assay on HOP-92 NSCLC, 30.7 µM; with LOX IMVI melanoma, 2.39 µM; with M14 melanoma it was 1.08 µM; in the assay on OVCAR-5 ovarian, 1.69 µM. Moreover, the GI50 is 1.89 µM with OVCAR-8 ovarian, 2.49 µM with SF-268 CNS, 1.46 µM with SNB-19 CNS and 1.38 µM in the assay with U251 CNS. The TGI in the assay with 786-0 renal, in the assay with HCT-116 colon, in the assay with HOP-92 NSCLC, in the assay with LOX IMVI melanoma, in the assay on M14 melanoma and in the assay on OVCAR-5 ovarian was more than 33.3 µM in each case. The TGI in the assay on OVCAR-8 ovarian, with SF-268 CNS, with SNB-19 CNS and in the assay on U251 CNS was more than 33.3 µM throughout.
As to `CC(C)Oc1cc(OCC(=O)O)cc(C(=O)N(CCC(N)=O)C(=O)Nc2ccc(C(=O)O)cc2OC(C)C)c1`, the GI50 with 786-0 renal, in the assay on HCT-116 colon, with HOP-92 NSCLC, in the assay on LOX IMVI melanoma, in the assay on M14 melanoma and in the assay with OVCAR-5 ovarian was more than 100 µM in each case. The GI50 in the assay with OVCAR-8 ovarian, in the assay on SF-268 CNS, with SNB-19 CNS and with U251 CNS was more than 100 µM in each case. The TGI in the assay on 786-0 renal, in the assay with HCT-116 colon, in the assay with HOP-92 NSCLC, with LOX IMVI melanoma, in the assay on M14 melanoma and in the assay with OVCAR-5 ovarian was more than 100 µM throughout. The TGI with OVCAR-8 ovarian, in the assay with SF-268 CNS, in the assay with SNB-19 CNS and in the assay with U251 CNS was more than 100 µM each time.
Take `CCOP1(=O)OCC2OC(n3cnc4c(N)ncnc43)C(O)C2O1` (centres undefined): the TGI in the assay with 786-0 renal, in the assay on HCT-116 colon, in the assay on HOP-92 NSCLC, with LOX IMVI melanoma, with M14 melanoma and in the assay on OVCAR-5 ovarian was more than 100 µM throughout. The TGI with OVCAR-8 ovarian, in the assay with SF-268 CNS, in the assay with SNB-19 CNS and with U251 CNS was more than 100 µM in each case.
As for `O=c1ccc2nc(-c3ccccc3)nn(-c3ccccc3)c-2c1`, the GI50 is 1.84 µM in the assay on 786-0 renal; 0.79 µM in the assay on HCT-116 colon; 1.5 µM with HOP-92 NSCLC; 2.08 µM in the assay on LOX IMVI melanoma; 1.67 µM in the assay on M14 melanoma; 2.6 µM in the assay on OVCAR-5 ovarian. Further, the GI50 with OVCAR-8 ovarian is 2.21 µM; in the assay with SF-268 CNS, 3.48 µM; in the assay on SNB-19 CNS, 16.9 µM; in the assay with U251 CNS it was 5.78 µM. The TGI in the assay on 786-0 renal amounted to 3.36 µM; in the assay with HCT-116 colon, 2.08 µM; in the assay on HOP-92 NSCLC, 2.93 µM; in the assay on LOX IMVI melanoma it was 4.27 µM; with M14 melanoma, 3.27 µM; in the assay with OVCAR-5 ovarian it was 7.54 µM. The TGI with OVCAR-8 ovarian came out at 5.59 µM; in the assay with SF-268 CNS, 13.5 µM; in the assay with SNB-19 CNS, 41.1 µM; in the assay with U251 CNS, 20.4 µM.
Regarding `CC[C@]1(O)C[C@@H]2CN(Cc3c([nH]c4ccccc34)[C@@](C(=O)OC)(c3cc4c(cc3OC)N(C)[C@H]3[C@@](O)(C(=O)OC)[C@H](OC(C)=O)[C@]5(CC)[C@@H]6C[C@@H]6CN6CC[C@]43[C@@H]65)C2)C1`, the GI50 in the assay on 786-0 renal was 0.713 µM; with HCT-116 colon it was 0.0351 µM; in the assay on HOP-92 NSCLC, 0.0314 µM; with LOX IMVI melanoma, 0.0304 µM; in the assay on M14 melanoma it was 0.135 µM; with OVCAR-5 ovarian, 0.144 µM. In addition, the GI50 was 0.318 µM in the assay on OVCAR-8 ovarian, 0.148 µM in the assay on SF-268 CNS, 0.106 µM in the assay with SNB-19 CNS and 0.112 µM in the assay on U251 CNS. Moreover, the TGI in the assay with 786-0 renal was more than 4.38 µM; with HCT-116 colon, more than 4.38 µM; with HOP-92 NSCLC, more than 4.38 µM; in the assay on LOX IMVI melanoma it was more than 4.38 µM; in the assay on M14 melanoma, more than 2.93 µM; in the assay with OVCAR-5 ovarian, more than 4.38 µM. Further, the TGI in the assay on OVCAR-8 ovarian, with SF-268 CNS, in the assay with SNB-19 CNS and in the assay with U251 CNS was more than 4.38 µM throughout.
Take `CN(C)CCCn1cnc2ncccc2c1=O`: the TGI with 786-0 renal, with HCT-116 colon, in the assay with HOP-92 NSCLC, in the assay on LOX IMVI melanoma, with M14 melanoma and in the assay with OVCAR-5 ovarian was more than 100 µM each time. In addition, the TGI in the assay on OVCAR-8 ovarian, with SF-268 CNS, in the assay with SNB-19 CNS and in the assay on U251 CNS was more than 100 µM throughout.
